Legend:
[1] = test system: Human chronic myelocytic leukemia cells, K562, ALDH (+) fraction (cancer stem cells); assay: Cancer stem-cell selective inhibitory action against chronic myelocytic leukemia cells, ALDH (+) fraction; format: cell-based; conditions: 24 hours
Description: (§1) Human chronic myelocytic leukemia cells, K562, were pre-cultured in RPMI1640 medium containing 10% FBS at 37° C. in a 5% CO2 ambient. Then, a fraction containing 80% or more of cancer stem cells was extracted by use of a cancer stem cell marker, ALDEFLUOR reagent (manufactured by VERITAS Corporation) and FACSAria flow cytometry (manufactured by Nippon Becton, Dickinson and Company). […] The cultured cells were analyzed for viable cell count according to CellTiter-Glo Luminescent Cell Viability Assay (manufactured by Promega KK.). […] Note that hereinafter, an ALDEFLUOR reagent positive fraction (deemed as cancer stem cells) is represented by ALDH (+), whereas an ALDEFLUOR reagent negative fraction (not deemed as cancer stem cells) is represented by ALDH (−), in some cases.
(§2) Further, the growth suppressive effect of cancer stem cells was evaluated based on the following criteria. Note that the growth rate in Examples is a value obtained by dividing viable cell count after culture by the number of cells at the initiation time of culture.

[2] = test system: K562-KOr human chronic myelocytic leukemia cells, ALDH (−) fraction, transplanted to zebra young fish; assay: Inhibitory action in cancer cells transplanted animal, ALDH (−) fraction; format: in vivo; conditions: 0.5 μm in breeding water added 24 hours after transplantation, fluorescent intensity
From the text: (§3) From cell strain K562-KOr, which is a strain of human chronic myelocytic leukemia cells having fluorescent protein Kusabira-Orange constantly expressed, a fraction (ALDH (+)) containing 80% or more of cancer stem cells was extracted by use of a cancer stem cell marker, ALDEFLUOR reagent (manufactured by VERITAS Corporation) and FACSAria flow cytometry (manufactured by Nippon Becton, Dickinson and Company). The ALDH (+) fraction and a ALDH (−) fraction of general cancer cells were transplanted separately to zebra young fish (MieKomachi lineage, 2 days after fertilization) and the fish were raised in a 32° C. environment. Furthermore, 24 hours after transplantation, Compound (16) was added to breeding water so as to obtain a final concentration of […] and fish were raised for two days in a 32° C. environment.
(§4) Cells transplanted to the zebra young fish were observed under MZ16F fluorescent stereoscopic microscope (manufactured by Leica Microsystems) and a fluorescent image of the cells after 24 hours was photographed and then fluorescent intensity was quantified.
As a reference, the fluorescent intensity of cells, which were cultured in the same operation method as above in a medium containing a 0.1% DMSO solution in place of Compound (16), was used. […]

K562 ALDH (−) cells = assay: Cancer stem-cell selective staining, ALDH (−) cells; format: cell-based, Human; conditions: cells of Experimental Examples 39, 42 and 45 (1 μg/ml, cultured for 24 hours), fluorescent microscope
Description: (§5) The cells cultured for 24 hours in each of Experimental Examples 39, 42 and 45 were subjected to nuclear staining with Hoechest33342 (manufactured by Dojindo Laboratories) and a fluorescent image observed under AXIOVERT200M inverted fluorescent microscope (manufactured by Carl Zeiss) was photographed.

[3] = Measurement of fluorescent property of compound; format: physicochemical; conditions: 5 μM DMSO solution
Description: The excitation wavelength and fluorescence wavelength of the compound were measured by a FL4500 spectrofluorometric measuring machine manufactured by Hitachi High-Technologies Corporation.

[4] = test system: Human pancreas cancer cells, KLM-1; assay: Cancer cell inhibitory (growth suppressive) action against pancreatic cancer cells, CellTiter-Glo viable cell count; conditions: KLM-1, 10 μg/mL, 24 hours
Description: Human pancreas cancer cells, KLM-1, were pre-cultured in RPMI1640 medium containing 10% FBS at 37° C. in a 5% CO2 ambient. Thereafter, 4,000 cells were seeded per well of a 96-well plate and further cultured for 24 hours. […] The cultured cells were analyzed for viable cell count according to CellTiter-Glo Luminescent Cell Viability Assay (manufactured by Promega KK.).
Evaluation of cancer cell inhibition against the pancreatic cancer cells (KLM-1) (growth suppression) was made based on the following criteria. Note that the growth rate used in Examples refers to the rate (expressed by percentage) of viable cell count after culture relative to the number of cells at the initiation of cell culture.

[5] = test system: Prostatic cancer cells, PC-3; assay: Cancer cell inhibitory (growth suppressive) action against prostatic cancer cells, CellTiter-Glo viable cell count; format: cell-based; conditions: PC-3, 10 μg/mL, 24 hours
Description: Prostatic cancer cells, PC-3, were pre-cultured in RPMI1640 medium containing 10% FBS at 37° C. in a 5% CO2 ambient. Thereafter, 4,000 cells were seeded per well of a 96-well plate and further cultured for 24 hours. Subsequently, Compound (1) was added to the medium so as to obtain a final concentration of 10 μg/mL and cultured at 37° C. for 24 hours in a 5% CO2 ambient. The cultured cells were analyzed for viable cell count according to Cell Titer-Glo Luminescent Cell Viability Assay (manufactured by Promega KK.).
Viable cell count was analyzed in the same manner as in Experimental Example 24 except that Compound (1) of Experimental Example 24 was changed to each compound shown in Table 2.
Viable cell count was analyzed in the same manner as in Experimental Example 24 except that Compound (1) of Experimental Example 24 was changed to each of Comparative compounds 1 to 4, to obtain growth rates.
Note that the growth rate used in Examples refers to the rate (expressed by percentage) of viable cell count after culture relative to the number of cells at the initiation of cell culture. Evaluation criteria are the same as in the above experiments.

K562 ALDH (+) cells = assay: Cancer stem-cell selective staining, ALDH (+) cells; format: cell-based, Human; conditions: cells of Experimental Examples 39, 42 and 45 (1 μg/ml, cultured for 24 hours), fluorescent microscope
Description: as §5

[6] = test system: K562-KOr human chronic myelocytic leukemia cells, ALDH (+) fraction, transplanted to zebra young fish; assay: Inhibitory action in cancer stem cells transplanted animal, ALDH (+) fraction; format: in vivo; conditions: for Growth suppression rate (ALDH(+) versus ALDH(−)): zebra young fish transplanted with K562-KOr fractions; for ALDH(+) inhibition rate 100×(1−F1/F0): zebra young fish, 0.5 μm in breeding water added 24 hours after transplantation, fluorescent intensity
From the text: as §3, §4
As a reference, the fluorescent intensity of cells, which were cultured in the same operation method as above in a medium containing a 0.1% DMSO solution in place of Compound (16), was used.
The numerical value of fluorescent intensity was obtained from a fluorescent image taken in the same manner as in Experimental Example 74 except that Compound (16) of Experimental Example 74 was changed to Imatinib.
. The inhibition rate herein was obtained according to the expression: 100×(1−F1/F0), where the fluorescent intensity of cells when a test substance was added is represented by F1, and the fluorescent intensity of cells when a reference substance (DMSO) was added is represented by F0.

[7] = test system: KLM1-KOr cells, ALDH (+) fraction, transplanted to zebra young fish; assay: Cancer metastasis suppressive effect in cancer cell metastatic foci (region within 300 to 450 μm from a transplanted tumor); format: in vivo; conditions: 72 hours later, region within 300 to 450 μm from transplanted tumor
Description: From cell strain […], in which KLM1 cells have fluorescent protein Kusabira-Orange constantly expressed, a fraction (ALDH (+)) containing 80% or more of cancer stem cells was extracted with ALDEFLUOR reagent (manufactured by VERITAS Corporation) and FACSAria flow cytometry (manufactured by Nippon Becton, Dickinson and Company). The extracted KLM1-KOr cells were transplanted to zebra young fish (MieKomachi lineage, 2 days after fertilization) and the fish were raised in a 32° C. environment. Furthermore, 24 hours after transplantation, Compound (26) (745 μmol/KgBW) was administered to yolk sac.
as §4, with “72 hours later, cells” for “Cells”, “region within 300 to 450 μm from a transplanted tumor” for “cells after 24 hours”
As a reference, the fluorescent intensity of cells, which were cultured in the same operation method as above in a medium containing a 0.1% DMSO solution in place of Compound (26), was used.
Fluorescent images were photographed in the same manner as in Experimental Example 26 except that Imatinib and Dasatinib were respectively used in place of the compound (26) in Experimental Example 75.
The inhibition rate herein was obtained according to the expression: 100×(1−F1/F0), where the fluorescent intensity of cells when a test substance was added is represented by F1, and the fluorescent intensity of cells when a reference substance (DMSO) was added is represented by F0.

[8] = test system: Human chronic myelocytic leukemia cells, K562, ALDH (−) fraction (general cancer cells); assay: Cancer stem-cell selective inhibitory action against chronic myelocytic leukemia cells, ALDH (−) fraction; format: cell-based; conditions: K562
Description: as §1, §2

Excitation wavelength λex [3] [nm] | Fluorescence wavelength λem [3] [nm] | Compound | ALDH(+) Superiority evaluation ([1]; K562, 0.05 μg/ml) | ALDH(+)/ALDH(−) ([1]; K562, 0.05 μg/ml) | ALDH(+) Superiority evaluation ([1]; K562, 0.5 μg/ml) | ALDH(+)/ALDH(−) ([1]; K562, 0.5 μg/ml) | ALDH(+) Superiority evaluation ([1]; K562, 1 μg/ml) | ALDH(+)/ALDH(−) ([1]; K562, 1 μg/ml) | ALDH(−) inhibition rate 100×(1−F1/F0) [2] | ratio of ALDH (−) cells stained (K562 ALDH (−) cells) [%] | Cancer cell growth rate (%) [4] [%] | Evaluation (cancer cell growth rate) [4] | Cancer cell growth rate (%) [5] [%] | Evaluation (cancer cell growth rate) [5] | ratio of ALDH (+) cells stained (K562 ALDH (+) cells) [%] | Growth suppression rate (ALDH(+) versus ALDH(−)) [6] | ALDH(+) inhibition rate 100×(1−F1/F0) [6] | further results
474 | 509 | CCCCCN1/C(=C\C=C\c2oc3ccccc3[n+]2CCCCC)Oc2ccccc21 [Compound 16] | B (The value of the growth rate of ALDH (+)/the growth rate of ALDH (−) is 0.8 or more and less than 0.95) | 0.87 | A (The value of the growth rate of ALDH (+)/the growth rate of ALDH (−) is less than 0.8) | 0.70 | A (The value of the growth rate of ALDH (+)/the growth rate of ALDH (−) is less than 0.8) | 0.47 | 82.0 | 18.6 | 2.0 | A (Cancer cell growth rate is less than 20%) | 8.4 | A (Cancer cell growth rate is less than 20%) | 99.5 | ALDH(+) is high | 95.0 | –
496 | 569 | CCN1/C(=C\C=C\C2=[N+](CC)c3ccccc3C23CCCCC3)C2(CCCCC2)c2ccccc21 [Compound 24] | B (The value of the growth rate of ALDH (+)/the growth rate of ALDH (−) is 0.8 or more and less than 0.95) | 0.81 | A (The value of the growth rate of ALDH (+)/the growth rate of ALDH (−) is less than 0.8) | 0.61 | A (The value of the growth rate of ALDH (+)/the growth rate of ALDH (−) is less than 0.8) | 0.48 | – | 28.6 | 6.5 | A (Cancer cell growth rate is less than 20%) | 10.0 | A (Cancer cell growth rate is less than 20%) | 81.2 | – | – | –
– | – | Cc1ccc(NC(=O)c2ccc(CN3CCN(C)CC3)cc2)cc1Nc1nccc(-c2cccnc2)n1 [Imatinib, reference compound] | – | – | – | – | – | – | 80.0 | – | – | – | – | – | – | ALDH(−) is high | 60.0 | ALDH(+) Superiority evaluation ([1]; K562, 0.12 μg/ml): C (The value of the growth rate of ALDH (+)/the growth rate of ALDH (−) is 0.95 or more); ALDH(+)/ALDH(−) ([1]; K562, 0.12 μg/ml): 1.47; ALDH(+) Superiority evaluation ([1]; K562, 0.24 μg/ml): C (The value of the growth rate of ALDH (+)/the growth rate of ALDH (−) is 0.95 or more); ALDH(+)/ALDH(−) ([1]; K562, 0.24 μg/ml): 1.48; ALDH(+) Superiority evaluation ([1]; K562, 0.35 μg/ml): C (The value of the growth rate of ALDH (+)/the growth rate of ALDH (−) is 0.95 or more); ALDH(+)/ALDH(−) ([1]; K562, 0.35 μg/ml): 1.51; ALDH(+) Superiority evaluation ([1]; K562, 0.47 μg/ml): C (The value of the growth rate of ALDH (+)/the growth rate of ALDH (−) is 0.95 or more); ALDH(+)/ALDH(−) ([1]; K562, 0.47 μg/ml): 1.63; ALDH(+) Superiority evaluation ([1]; K562, 0.59 μg/ml): C (The value of the growth rate of ALDH (+)/the growth rate of ALDH (−) is 0.95 or more); ALDH(+)/ALDH(−) ([1]; K562, 0.59 μg/ml): 2.80; Inhibition rate 100×(1−F1/F0), metastatic foci ([7]; administered to yolk sac 24 hours after transplantation (Compound (26) 745 μmol/KgBW)): 60; Evaluation (inhibition rate, metastatic foci) [7]: B (Inhibition rate is 50 or more and less than 70); inhibitory effect against general cancer cells [8]: an inhibitory effect against general cancer cells was observed

Reference: patent US10278965B2, “Method of detecting cancer stem cell, method of screening cancer stem cell, and method of inhibiting cancer stem cell” (CANON KABUSHIKI KAISHA, priority 2012, dated 2019)
